{"source": "ChEMBL document CHEMBL1139754", "about": "“Insect pest control agents: Novel chiral butanoate esters (juvenogens)” (Bioorg Med Chem, 2007)", "data": [{"test_system": "Prorhinotermes", "experiment": "Juvenilizing activity against termite Prorhinotermes simplex at 0.5 mg m/L", "type": "functional", "units": {"Activity": "%"}, "values": [{"compound": "CCCC(=O)O[C@H]1CCCC[C@@H]1Cc1ccc(OCCNC(=O)OCC)cc1", "Activity": 65}, {"compound": "CCCC(=O)O[C@@H]1CCCC[C@H]1Cc1ccc(OCCNC(=O)OCC)cc1", "Activity": 65}, {"compound": "CCCC(=O)O[C@@H]1CCCC[C@@H]1Cc1ccc(OCCNC(=O)OCC)cc1", "Activity": 65}, {"compound": "CCCC(=O)O[C@H]1CCCC[C@H]1Cc1ccc(OCCNC(=O)OCC)cc1", "Activity": 65}]}]}
